Source: PMC10221314 (Pharmaceuticals, 2023)
Where “and” joins values, the source holds several entries; their conditions need not be identical. Identical values can stand only once. Entries after “also recorded” stand apart in the source; their conditions may differ. Each block holds one molecule with its values, some of them ahead of it.

How the values were obtained:
[1] = system: HFD mice; parameters: method as in PMID 30635917; conditions: 100 mg·Kg^−1; cited from earlier work
[2] = system: FXR downstream genes; conditions: previous study; cited from earlier work
[3] = system: LX-2 cells; assay: mRNA expression of liver fibrosis marker genes in TGFβ1-induced LX-2 cells; type: cell-based; conditions: 10 μM, induced by 2 ng·mL^−1 TGFβ1, 24 h
Procedure: (§1) Cells and liver tissue samples were subjected to RNA extraction and purification, followed by reverse transcription of equal amounts of total RNA into […] using a Transcriptor First Strand cDNA Synthesis Kit (Roche). The relative expression levels of the target gene were determined using TaqMan probe/primers with an ABI Q3 quantitative real-time PCR system, while GAPDH/Gapdh was utilized as an internal control for mRNA expression. The fold change in the expression of the target mRNA was calculated using Equation 2^−ΔΔCt.
(A–E) The LX-2 cells underwent a 24 h treatment of 2 ng·mL^−1 TGFβ1, with or without varying concentrations of candidate compounds, following FBS starvation. […] GAPDH/GAPDH was used as the loading control. The mean ± SD values were obtained from three independent assays. […] ANOVA was followed by Tukey’s test for statistical analysis.

[4] = parameters: method as in PMID 34970143; conditions: 120 mg·Kg^−1; cited from earlier work
[5] = system: FXR downstream genes; assay: mRNA expression of FXR downstream genes in HepG2 cells (qRT-PCR); type: cell-based; conditions: 50 μM, 24 h
Procedure: as §1
(A) Relative mRNA level of SHP; (B) Relative mRNA level of BSEP; (C) Relative mRNA level of CYP7A1; (D) Relative mRNA level of SREBP1c; (E) Relative mRNA level of PEPCK; (F) Expression level of G6Pase. HepG2 cells were seeded in a 6-well plate and treated with DMSO and varying concentrations of compound 10b for 24 h with or without 50 μM of 1. The mRNA levels of SHP, BSEP, CYP7A1, SREBP1c, PEPCK, and G6Pase were quantified and normalized to β-actin expression.

[6] = biological target: T1, FXR (Homo sapiens, UniProt Q96RI1); assay: Yeast one-hybrid assay of FXR antagonistic activity in HEK-293T cells; type: cell-based; conditions: HEK-293T cells; CDCA (50 μM) as agonist; mean ± SE of three independent tests
T1 construct: a fusion plasmid of Gal4 DBD-NR-LBD, which included PPARα, PPARβ, PPARγ, RXRα, RXRβ, RXRγ, LXRα, LXRβ, GPBAR, PXR, and FXR; expressed in transfected cells; host or cells: HEK-293T
T1 sequence (Q96RI1 262-486 limits assumed): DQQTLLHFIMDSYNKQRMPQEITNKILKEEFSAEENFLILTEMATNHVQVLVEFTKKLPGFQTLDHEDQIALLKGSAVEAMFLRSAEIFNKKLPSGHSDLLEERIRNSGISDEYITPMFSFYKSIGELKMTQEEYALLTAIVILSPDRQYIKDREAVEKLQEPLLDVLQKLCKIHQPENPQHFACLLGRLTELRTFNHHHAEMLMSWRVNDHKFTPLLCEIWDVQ
Procedure: Cell counting: HEK-293T cells in logarithmic growth phase were digested with 0.25% trypsin, collected, and centrifuged. The trypsin-containing medium was discarded, and 2 mL of fresh phenol red-free DMEM medium containing 5% fetal bovine serum was added. The cells were then mixed with the medium to prepare a cell suspension and counted on a cell counting plate.
Cell plating: A determined number of cells were taken from the cell suspension, diluted with phenol red-free DMEM medium containing 5% fetal bovine serum, and plated at a concentration of 10,000 cells per well (100 µL medium) in a 96-well plate. The plate was then incubated at 37 °C and 5% CO2 for 24 h.
Cell transfection: Fresh phenol red-free DMEM medium was taken in a sterile environment, and the previously extracted pFXR-Binding plasmid and PG4.35[luc2P-9XGA4UAS-Hygro] plasmid were added. The mixture was stirred and allowed to stand at 23 °C for 3 min. Then, a 3% amount of transfection reagent was added to the mixture, and it was allowed to stand at 23 °C for 15 min. The mixture was then added to the 96-well plate at a volume of 10 µL per well and incubated at 37 °C in a 5% CO2 environment for 24 h.
The OA derivatives were prepared as 10 mM DMSO stock solutions and further diluted in a concentration gradient, with 10 µL added to each well. The final concentrations of the derivatives ranged from 10 µM to 0.03 µM, with 7 concentration gradients using […] dilution. The test was set with 3 duplicated wells.
Antagonism activity test: The firefly-Renilla Dual Fluorescence Assay Kit (Promega, #E2940, Madison, WI, USA) was used to measure the antagonism activity of the OA derivatives. Firstly, the firefly fluorescence reagent was added to the 96-well plate at a volume of 70 µL per well and shaken in darkness for 15 min. Then, the fluorescence intensity was measured at a wavelength of 645 ± 30 nm in a microplate reader (BioTek, Winooski, VT, USA). Next, the volume of Renilla reagent was added to the 96-well plate at a volume of 70 µL per well and shaken in darkness for 15 min. The fluorescence intensity was then measured at a wavelength of 525 ± 20 nm.
Data processing: The fluorescence data of firefly were divided by the fluorescence data of Renilla to remove errors, and the antagonism efficiency was calculated using the following formula: antagonism efficiency (%) = [1 − (FCompds. − FDMSO)/(FCDCA − FDMSO)] × 100%. In the formula, F represents fluorescence intensity. The antagonistic efficiency data were obtained as a concentration–effect curve using Graphpad Prism 8.0 software, and the corresponding IC50 value was calculated.

[7] = system: RXRα, RXRβ, RXRγ, LXRα, LXRβ, PXR, PPARα, PPARβ, PPARγ, and GPBAR; assay: NR selectivity one-hybrid assay in HEK-293T cells (panel of metabolic NRs); type: cell-based; conditions: with corresponding agonists
Procedure: To assess the compound’s specificity, the mammalian one-hybrid assay was conducted. In this assay, HEK-293T cells were co-transfected with a fusion plasmid of Gal4 DBD-NR LBD (comprising RXRα, RXRβ, RXRγ, PPARα, PPARβ, PPARγ, LXRα, LXRβ, GPBAR, and PXR) and the UAS-TK-Luc reporter, followed by treatment with various concentrations of the compound. The positive control consisted of the corresponding nuclear receptor agonist, and the concentration used in the experiment was set to the EC50 of the agonist.
Figure 3 Compound 10b selectively antagonized FXR. The impact of compound 10b on various NRs was evaluated using a […] one-hybrid assay in HEK-293T cells. The cells were transiently co-transfected with a fusion plasmid of Gal4 DBD-NR-LBD, which included PPARα, PPARβ, PPARγ, RXRα, RXRβ, RXRγ, LXRα, LXRβ, GPBAR, PXR, and FXR, in combination with the UAS-TK-Luc reporter. […] The values are expressed as the means ± SE of three independent experiments. *: p < 0.05 vs. RA (relative agonist).

Structure (SMILES): C=C(C)[C@@H]1CC[C@]2(C(=O)O)CC[C@]3(C)[C@H](CC[C@@H]4[C@@]5(C)CC[C@H](O)C(C)(C)[C@@H]5CC[C@]43C)[C@@H]12 [BA, Betulinic acid]
liver TC levels [1]: reduce
liver TG levels [1]: reduce

Structure (SMILES): CC(=O)CCCC(=O)OC1CC2C3(C)CCC(O)C(C)(C)C3CCC2(C)C2(C)CCC3(C(=O)O)CCC(C)(C)CC3C12 (stereo not shown) [Compound 7]
CYP7A1 gene expression [2]: downregulated; also recorded: significantly reduces
G6Pase expression [2]: significantly reduces
PEPCK expression [2]: significantly reduces

Structure (SMILES): CC[C@H]1[C@@H](O)[C@@H]2[C@H](CC[C@]3(C)[C@@H]([C@H](C)CCC(=O)O)CC[C@@H]23)[C@@]2(C)CC[C@@H](O)C[C@@H]12 [OCA, obeticholic acid, reference compound]
mRNA expression of CTGF [3]: decreased

Structure (SMILES): C[C@@H]1CC[C@]2(C(=O)O[C@@H]3O[C@H](CO)[C@@H](O)[C@H](O)[C@H]3O)CC[C@]3(C)C(=CC[C@@H]4[C@@]5(C)CC[C@H](O)[C@](C)(C(=O)O)[C@@H]5CC[C@]43C)[C@@H]2[C@]1(C)O [IsA, Ilexsaponin A1]
liver TC levels [4]: reducing
liver TG [4]: reducing
serum TG [4]: reducing

expression of CYP7A1 (mRNA) [5]: decrease
Structure (SMILES): C[C@H](CCC(=O)O)[C@H]1CC[C@H]2[C@@H]3[C@H](O)C[C@@H]4C[C@H](O)CC[C@]4(C)[C@H]3CC[C@]12C [CDCA, Chenodeoxycholic acid, reference compound]

Structure (SMILES): CCCOC(=O)C(CCC(=O)OC1CC2C3(C)CCC(O)C(C)(C)C3CCC2(C)C2(C)CCC3(C(=O)O)CCC(C)(C)CC3C12)NC(=O)OC(C)(C)C [Compound 20c, 3β-hydroxy-12β-(4′-((tert-butoxycarbonyl)amide)-5′-propoxy-L-glutamate)oxy-13H-olean-28-oic acid]
IC50 [6]: 560 ± 130 nM

Structure (SMILES): CCCOC(=O)NC(CCC(=O)OC1CC2C3(C)CCC(O)C(C)(C)C3CCC2(C)C2(C)CCC3(C(=O)O)CCC(C)(C)CC3C12)C(=O)OC(C)(C)C [Compound 19c, 3β-hydroxy-12β-(4′-((propoxycarbonyl)amide)-5′-(tert-butoxy)-L-glutamate)oxy-13H-olean-28-oic acid]
IC50 [6]: 400 to 500 nM and 450 nM

Structure (SMILES): CC1(C)CC[C@]2(C(=O)O)CC[C@]3(C)[C@H]([C@H](OC(=O)C[C@H](NC(=O)OC(C)(C)C)C(=O)OC(C)(C)C)CC4[C@@]5(C)CC[C@H](O)C(C)(C)C5CC[C@]43C)[C@@H]2C1 (stereo partly drawn) [Compound 9a, 3-hydroxy-12β-(3′-((tert-butoxycarbonyl)amino)-4′-(tert-butoxy)-L-aspartate)oxy-13H-olean-28-oic acid]
IC50 [6]: 950 ± 140 nM

Structure (SMILES): C/C=C1\C(=O)C[C@H]2[C@@H]3CCC4=CC(=O)CC[C@]4(C)[C@H]3CC[C@]12C [guggulsterone, reference compound]
antagonism of metabolic NRs [7]: Most NRs were antagonized
mRNA expression of ACTA2 [3]: significantly decreased
mRNA expression of COL1A1 [3]: significantly decreased
